Source: publication PMC4852132 (Biochemistry, 2016)
Values joined by “and” are separate entries in the source; they are usually repeats but may differ in a detail not shown here. Equal values may be shown once. Read-outs that look alike come from different tables or passages of the source.

Tests used:
PDHc-h = PDHc-h (Homo sapiens, UniProt P08559+P11177); assay: Overall PDHc-h activity by formation of NADH at 340 nm; format: biochemical
E1p-h [1] = target: T1, E1p-h (Homo sapiens, UniProt P08559+P11177); assay: E1p-h specific activity by rate of reduction of DCPIP; format: biochemical; settings: for E1p-h specific activity, percent of that with ThDP: cofactor 0.2 or 0.5 mM
T1 sequence (P08559 30-390): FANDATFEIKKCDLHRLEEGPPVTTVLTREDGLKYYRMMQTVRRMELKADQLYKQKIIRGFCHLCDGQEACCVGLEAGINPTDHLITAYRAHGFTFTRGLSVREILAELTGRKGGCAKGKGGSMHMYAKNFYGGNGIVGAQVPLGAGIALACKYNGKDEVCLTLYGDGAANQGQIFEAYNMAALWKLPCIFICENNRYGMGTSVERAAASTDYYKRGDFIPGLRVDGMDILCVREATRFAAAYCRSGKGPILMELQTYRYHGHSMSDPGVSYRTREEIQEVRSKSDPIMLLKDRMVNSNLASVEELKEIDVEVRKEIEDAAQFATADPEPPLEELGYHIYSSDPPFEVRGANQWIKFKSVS
T1 sequence (P11177 31-359): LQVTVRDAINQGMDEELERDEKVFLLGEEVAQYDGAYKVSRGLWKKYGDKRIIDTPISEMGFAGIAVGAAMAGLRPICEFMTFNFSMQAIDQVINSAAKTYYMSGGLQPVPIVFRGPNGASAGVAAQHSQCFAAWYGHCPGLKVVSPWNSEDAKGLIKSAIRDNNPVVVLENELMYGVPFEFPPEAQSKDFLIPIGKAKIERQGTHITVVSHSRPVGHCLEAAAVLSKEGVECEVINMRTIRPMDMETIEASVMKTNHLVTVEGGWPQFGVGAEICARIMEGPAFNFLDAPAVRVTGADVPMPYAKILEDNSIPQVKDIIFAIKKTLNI

E1p-h [2] = target: T1, E1p-h; assay: Quenching of intrinsic fluorescence of E1p-h; format: binding
E1p-h [3] = target: T1, E1p-h; assay: MS reductive acetylation of the E2p-h lipoyl domain; format: biochemical; settings: E1p-h with cofactor and pyruvate
OGDHc-h = target: T2, OGDHc-h (Homo sapiens, UniProt Q02218); assay: Overall OGDHc-h activity by formation of NADH; format: biochemical
T2 sequence (Q02218 41-1023): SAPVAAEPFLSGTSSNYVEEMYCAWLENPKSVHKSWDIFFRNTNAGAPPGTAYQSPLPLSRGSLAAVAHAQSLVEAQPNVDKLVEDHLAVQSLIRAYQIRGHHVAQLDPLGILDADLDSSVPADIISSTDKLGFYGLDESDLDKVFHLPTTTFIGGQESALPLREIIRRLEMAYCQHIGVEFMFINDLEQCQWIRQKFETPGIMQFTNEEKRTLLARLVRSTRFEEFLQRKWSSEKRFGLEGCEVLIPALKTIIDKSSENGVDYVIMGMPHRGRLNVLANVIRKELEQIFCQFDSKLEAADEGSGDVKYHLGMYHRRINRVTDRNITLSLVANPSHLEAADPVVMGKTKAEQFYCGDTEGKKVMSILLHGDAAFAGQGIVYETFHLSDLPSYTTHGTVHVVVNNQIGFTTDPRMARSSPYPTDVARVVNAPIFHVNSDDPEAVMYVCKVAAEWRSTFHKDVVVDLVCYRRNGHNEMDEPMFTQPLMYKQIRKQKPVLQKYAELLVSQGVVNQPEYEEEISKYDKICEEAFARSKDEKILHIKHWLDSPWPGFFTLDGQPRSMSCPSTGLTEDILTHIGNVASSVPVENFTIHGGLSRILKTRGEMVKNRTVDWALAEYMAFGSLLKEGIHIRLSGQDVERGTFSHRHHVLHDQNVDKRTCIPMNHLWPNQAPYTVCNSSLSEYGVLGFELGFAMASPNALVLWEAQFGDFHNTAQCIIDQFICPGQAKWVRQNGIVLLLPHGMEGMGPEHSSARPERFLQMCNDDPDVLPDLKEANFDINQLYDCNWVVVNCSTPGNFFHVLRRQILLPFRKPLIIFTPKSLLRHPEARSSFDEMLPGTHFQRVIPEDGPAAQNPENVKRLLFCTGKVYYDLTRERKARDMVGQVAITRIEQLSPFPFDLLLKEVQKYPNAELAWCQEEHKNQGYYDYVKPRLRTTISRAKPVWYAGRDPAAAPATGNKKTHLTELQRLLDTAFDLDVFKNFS
T2 sequence (P36957 68-453 partner): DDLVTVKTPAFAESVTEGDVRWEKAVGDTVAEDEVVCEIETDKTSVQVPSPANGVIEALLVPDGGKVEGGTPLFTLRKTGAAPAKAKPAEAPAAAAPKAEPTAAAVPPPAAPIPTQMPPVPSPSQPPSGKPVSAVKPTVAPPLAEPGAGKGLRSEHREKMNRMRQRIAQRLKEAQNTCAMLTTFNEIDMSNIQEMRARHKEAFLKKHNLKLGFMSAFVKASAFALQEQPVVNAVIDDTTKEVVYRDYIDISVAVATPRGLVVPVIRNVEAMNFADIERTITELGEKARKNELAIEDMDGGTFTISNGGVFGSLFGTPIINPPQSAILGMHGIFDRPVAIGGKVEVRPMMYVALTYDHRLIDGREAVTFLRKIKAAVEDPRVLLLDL
T2 sequence (P09622 36-509 partner): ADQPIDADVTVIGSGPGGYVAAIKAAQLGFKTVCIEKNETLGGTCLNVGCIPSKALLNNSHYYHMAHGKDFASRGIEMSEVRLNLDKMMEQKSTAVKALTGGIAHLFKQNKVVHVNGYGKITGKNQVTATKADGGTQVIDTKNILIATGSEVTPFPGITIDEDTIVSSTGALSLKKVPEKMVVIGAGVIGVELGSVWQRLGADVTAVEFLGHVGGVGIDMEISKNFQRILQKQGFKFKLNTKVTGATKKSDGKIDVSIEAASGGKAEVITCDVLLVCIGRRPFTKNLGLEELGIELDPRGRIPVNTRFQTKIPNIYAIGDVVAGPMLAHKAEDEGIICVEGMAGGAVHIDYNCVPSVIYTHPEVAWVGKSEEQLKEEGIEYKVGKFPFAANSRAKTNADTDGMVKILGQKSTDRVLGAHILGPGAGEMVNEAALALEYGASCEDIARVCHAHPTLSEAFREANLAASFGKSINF

E1p-ec [4] = target: T3, E1p-ec (Escherichia coli, UniProt P0AFG8); settings: cofactor 0.2 mM
E1p-ec [5] = target: T3, E1p-ec
DXPS [6] = target: T4, DXPS (Escherichia coli, UniProt P77488); settings: apo-DXPS with 0.10 mM cofactor
DXPS [7] = target: T4, DXPS; settings: apo-DXPS with 0.15 mM cofactor, 5 °C, 15 h

SMILES	pH of maximal kcat in the overall PDHc-h activity (PDHc-h; E1p-h complexed with MeOThDP)	E1p-h specific activity (E1p-h [1]; cofactor 0.2 and 0.5 mM, E1p-h alone, model reaction)	E1p-h specific activity, percent of that with ThDP (E1p-h [1])	percent of E1p-h fluorescence quenched (E1p-h [2])	Kd (E1p-h [2]; read-out: Kd from quenching of E1p-h fluorescence)	rate of reductive acetylation of LD1-h (E1p-h [3])	overall OGDHc activity, percent of that with ThDP (OGDHc-h)	E1p-ec specific activity, percent of that with ThDP (E1p-ec [4])	percent of the E1p-ec fluorescence quenched (E1p-ec [5])	DXPS activity, percent of that with ThDP (DXPS [6])	DXPS activity (DXPS [6]; 37 °C, independent preparations)	formation of (R)-acetolactate from pyruvate (DXPS [7])	overall PDHc-h activity, percent of that with ThDP (PDHc-h; cofactor 0.2 or 0.5 mM)	Kd (E1p-h [2])	E1p-ec specific activity (E1p-ec [4]; E1p-ec alone, model reaction)
COc1ncc(C[n+]2csc(CCOP(=O)(O)OP(=O)(O)O)c2C)c(N)n1 [MeOThDP, 2′-methoxythiamin diphosphate]	7.25	0.017 ± 0.01 µmol min^−1 (mg of E1p-h)^−1	~49%	4%	16.2 ± 4.5 µM	6.38 s⁻¹	64%	~19%	5.8%	9–14% and 8.8% and 14% and ~ 8.8% and ~ 14%	0.26 ± 0.04 µmol min^−1 (mg of DXPS)^−1 and 0.30 ± 0.01 µmol min^−1 (mg of DXPS)^−1	not the case			
Cc1ncc(C[n+]2csc(CCOP(=O)([O-])OP(=O)(O)O)c2C)c(N)n1 [ThDP, thiamin diphosphate]			100%	19%		10.25 s⁻¹	100%	100%	9.9%	100%		formation of (R)-acetolactate	100%	7.2 ± 0.5 µM	0.36 ± 0.01 µmol min^−1 (mg of E1p-ec)^−1
